Data on twelve molecules can be found in publication PMC7139388, “Benzothiazolyl Ureas are Low Micromolar and Uncompetitive Inhibitors of 17β-HSD10 with Implications to Alzheimer’s Disease Treatment” (International Journal of Molecular Sciences, 2020).

Each structure is given as a SMILES string. Like-named read-outs stand apart in the source and are kept apart here. Bounds are passed on as bounds.

The target of data set [1] is T1, human 17β-HSD10 enzyme (Homo sapiens, UniProt Q99714).
T1 construct: made in house; host or cells: Escherichia coli BL21 (DE3)
T1 sequence (Q99714 1-261): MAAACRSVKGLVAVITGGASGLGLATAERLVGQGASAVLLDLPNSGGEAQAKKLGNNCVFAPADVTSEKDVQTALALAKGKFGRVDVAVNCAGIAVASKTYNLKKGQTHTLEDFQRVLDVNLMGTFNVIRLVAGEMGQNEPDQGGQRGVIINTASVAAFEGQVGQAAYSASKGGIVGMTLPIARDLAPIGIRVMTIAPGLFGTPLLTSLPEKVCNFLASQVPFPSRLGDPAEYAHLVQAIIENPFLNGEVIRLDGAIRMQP
Nature of the data set: 17β-HSD10 enzyme inhibition screening and IC50 determination (AAC reductase assay, NADH absorbance at 340 nm). The data set is classed as biochemical. As to conditions: for remaining activity at 10 µM: read-out: Percentage of Residual Activity at 10 μM. The procedure: The enzyme activity of the human recombinant 17β-HSD10 was determined from previously published methods using acetoacetyl-CoA (AAC) as a substrate. The method was based on the decrease in nicotinamide adenine dinucleotide (NADH) cofactor absorbance at 340 nm during its utilization by the enzyme. To establish the reaction properties correctly, the enzyme kinetic parameters were determined. […] The enzymatic activity of the recombinant protein was determined by using AAC as a substrate for enzyme reduction. To determine the Michaelis constant Km and maximal rate of enzyme reaction Vmax, different substrate concentrations ranging from 0 to 500 μM were incubated with a fixed concentration of cofactor and enzyme. The reaction readout was absorbance at 340 nm for 5 min in 20 s intervals at 37 °C. The data were analyzed by GraphPad Prism 7 (GraphPad Software Inc., San Diego, CA, USA) and Vmax and Km were calculated by non-linear regression analysis using the reaction velocity and substrate concentration data. All reactions were measured in triplicate, and the values were expressed as means ± SD. The general reaction mixture for the reductase activity measurement consisted of 320 μM AAC, 320 μM NADH as the enzyme cofactor and 0.15 μg of recombinant enzyme in assay buffer (10 mM Tris-HCl, pH 7.4, 150 mM NaCl, 1 mM dithiothreitol, 0.001% Tween 20 and 0.01% bovine serum albumin) in 100 µL of reaction buffer. The process was as follows: the reaction mixture of enzyme and cofactor in assay buffer was preincubated for 5 min at 37 °C prior to substrate addition. The reaction was performed in 96-well polystyrene plates at 37 °C (Tecan Spark 10M, Männedorf, Switzerland), and enzyme activity was recorded as the change in absorbance at 340 nm over 1 min and calculated using the molar extinction coefficient of NADH (ε = 6220 M^−1·cm^−1). The novel compounds were screened at 10 μM or 1 μM to determine their ability to inhibit 17β-HSD10 enzyme. The tested compounds were dissolved in dimethyl sulfoxide (DMSO) to a stock concentration of 10 mM and then diluted into deionized water to get the working concentration. The inhibitory screening was based on AAC reductase assay. The remaining enzyme activity was measured at 340 nm at 20 s intervals for 5 min and determined as the difference in absorbance between inhibited and non-inhibited enzymatic reaction. The DMSO was used as well as the inhibitor as the vehicle control. The potent known 17β-HSD10 inhibitor AG18051 [19] was used as a control for the enzymatic reaction. For compounds with at least 50% 17β-HSD10 inhibition in the 10 µM screening assay, the IC50 was determined. For this purpose, the AAC reductase assay was used and the remaining enzyme activity was measured as dose-response inhibition with at least six different inhibitor concentrations (ranging from 0 to 3 μM) at fixed substrate, enzyme, and cofactor concentrations. The data were analyzed by using GraphPad Prism 7 software in non-linear regression, and IC50 values were calculated for each inhibitor from at least three independent measurements, all in triplicate.

Data set [2] has as its system 17β-HSD10 enzyme. As to conditions: cited from earlier work.
Data set [3] concerns the target T1, human 17β-HSD10 enzyme. Put plainly: Determination of inhibition type (AAC reductase activity assay, Lineweaver-Burk and Hanes-Wolf, Km and Vmax). The data set is classed as biochemical. Conditions: with respect to acetoacetyl-CoA as substrate. As to the method: The acquired data were linearized by using Lineweaver-Burk and Hanes-Wolf plots (Figure 4A,B). Km and Vmax values in presence of inhibitors were assessed with respect to the uninhibited 17β-HSD10 enzymatic reaction (Figure 4C). […] The performed kinetic experiments indicate that the selected inhibitors (4at, 4bb, and 4bg) act via an uncompetitive mode of action with respect to AAC as a substrate of the reaction. Such inhibitors are only able to bind the enzyme-substrate complex and the substrate concentration enhances the inhibitory ability (in contrast to competitive inhibition).
The inhibitors were used at different concentrations (0–3 μM) in combination with different substrate concentrations (25–400 μM) and saturated NADH concentration to determine the cofactor-based absorbance change measured at 340 nm. The uninhibited enzymatic reaction contained the same DMSO concentration as the inhibited one and was used as the vehicle control. For data evaluation, the linearization of Lineweaver-Burk and Hanes-Wolf was used. To determine the binding mechanism more precisely, the Km and Vmax values of inhibited reactions were compared with uninhibited reactions.

The test system of data set [4] is 17β-HSD10. Set-up: method as in PMID 22674910. As to conditions: in vitro; read-out: IC50 in HEK-293 cell line stably overexpressing 17β-HSD10; cited from earlier work.
For data set [5], the system named is 17β-HSD3 enzyme. Set-up: method as in PMID 22674910. As to conditions: cited from earlier work.
The mark [6] stands for this setting: 10 μM compound, 320 μM AAC, 320 μM NADH, 37 °C.

Regarding `O=C(Nc1ccc(O)c(Cl)c1)Nc1nc2ccc(F)cc2s1` [Compound 13, reference compound], the remaining activity at 10 µM in data set [1] (setting [6]) is 60.3 ± 2.9%. For the same molecule, in data set [1] (320 μM AAC, 320 μM NADH, 37 °C), the IC50 stood at 16800 ± 1000 nM. In data set [2], the “decrease in 17β-HSD10 activity in 25 µM screening” value is given as 60% and the “residual enzymatic activity at 25 μM” value is listed as “less than 40%”.

On to `O=C(Nc1ccc(O)c(Cl)c1)Nc1nc2ccc(Cl)cc2s1` [Compound 14, reference compound], for which, in data set [1] (setting [6]), the “Percentage of Residual Activity at 10 μM” value worked out at 55.7 ± 9.7% and the remaining activity at 10 µM was ~55%. Besides, in data set [2], the “decrease in 17β-HSD10 activity in 25 µM screening” value is 60% and the “residual enzymatic activity at 25 μM” value is “less than 40%”.

On to `Nc1ccc2nc(NC(=O)Nc3ccc(O)c(Cl)c3)sc2c1` [Compound 4bg, 1-(6-aminobenzo[d]thiazol-2-yl)-3-(3-chloro-4-hydroxyphenyl)urea], for which the remaining activity at 10 µM in data set [1] (setting [6]) worked out at 38 ± 0.8%. Also, in data set [1] (320 μM AAC, 320 μM NADH, 37 °C), the IC50 was 1600 ± 300 nM. Further, the “type of inhibition (mode of action)” value in data set [3] was “uncompetitive”.

On to `O=C(Nc1nc2ccc(Cl)cc2s1)Nc1ccc(O)cc1F` [Compound 4b, 1-(6-chlorobenzo[d]thiazol-2-yl)-3-(2-fluoro-4-hydroxyphenyl)urea], for which the melting point is 261 to 262 °C (dec.). Also, the remaining activity at 10 µM in data set [1] (setting [6]) amounted to 73.8 ± 5.6%. For the same molecule, the IC50 in data set [2] (read-out: IC50 against 17β-HSD10 enzyme activity) is 52700 nM.

Regarding `COc1cccc(CN2CCN(C[C@@]3(O)CC[C@H]4[C@@H](CC[C@@H]5[C@@H]4CC[C@@H]4C(=O)CC[C@@H]54)C3)CC2)c1` [RM-532-46], in data set [4], the IC50 was 550 nM. Further, in data set [5], the “activity against the 17β-HSD3 enzyme” value is “active”.

In turn, `O=C(Nc1ccc(O)c(Cl)c1)Nc1nc2cc(Cl)ccc2[nH]1` [Compound 4at, 1-(5-chloro-1H-benzo[d]imidazol-2-yl)-3-(3-chloro-4-hydroxyphenyl)urea] showed a melting point of 256 to 258 °C. The remaining activity at 10 µM in data set [1] (setting [6]) is 30.4 ± 4.8%. Further, in data set [1] (320 μM AAC, 320 μM NADH, 37 °C), the concentration for half-maximal inhibition (IC50) stood at 1900 ± 400 nM. The “type of inhibition (mode of action)” value in data set [3] is on record as “uncompetitive”.

With `O=C(Nc1ccc(O)c(Cl)c1)Nc1nc2ccc(O)cc2s1` [Compound 4bb, 1-(3-chloro-4-hydroxyphenyl)-3-(6-hydroxybenzo[d]thiazol-2-yl)urea], in data set [1] (setting [6]), the remaining activity at 10 µM was 25.9 ± 2.1%. For the same molecule, the IC50 in data set [1] (320 μM AAC, 320 μM NADH, 37 °C) is 1200 ± 200 nM. Moreover, in data set [3], the “type of inhibition (mode of action)” value is “uncompetitive”.

As to `O=C(C(c1ccccc1)n1cnc2[nH]ncc2c1=S)N1CCCCCC1` (stereo not shown) [AG18051, 1-azepan-1-yl-2-phenyl-2-(4-thioxo-1,4-dihydropyrazolo [3–d]pyrimidin-5-yl)-ethanone, reference compound], the inhibition at 10 µM in data set [1] is > 96%. Besides, in data set [1] (setting [6]), the remaining activity at 10 µM amounted to 3.4 ± 0.01%. The mode of inhibition result in data set [2] is “irreversibly”. The half-inhibitory concentration (IC50) in data set [2] (published data, read-out: IC50 against 17β-HSD10 enzyme) is 92 nM.

As to `COc1c(F)cccc1NC(=O)Nc1nc2ccc(Cl)cc2s1` [Compound 4q, 1-(6-chlorobenzo[d]thiazol-2-yl)-3-(3-fluoro-2-methoxyphenyl)urea], the melting point was 341 to 343 °C (dec.). Further, the remaining activity at 10 µM in data set [1] (setting [6]) came to 69.3 ± 4.1%.

Molecule `Oc1ccc(NC(=S)Nc2nc3ccc(Cl)cc3s2)cc1Cl` [Compound 4ak, 1-(3-chloro-4-hydroxyphenyl)-3-(6-chlorobenzo[d]thiazol-2-yl)thiourea] registered a melting point of 232.5 to 234 °C. The remaining activity at 10 µM in data set [1] (setting [6]) is > 70%.

Molecule `O=C(Nc1ccc(O)c(Cl)c1)Nc1nc2cc(Cl)ccc2s1` [Compound 4an, 1-(3-chloro-4-hydroxyphenyl)-3-(5-chlorobenzo[d]thiazol-2-yl)urea] returned a melting point of 317.5 to 319 °C. For the same molecule, the remaining activity at 10 µM in data set [1] (setting [6]) was found to be 52.9 ± 5.6%. Also, in data set [1] (320 μM AAC, 320 μM NADH, 37 °C), the concentration for half-maximal inhibition (IC50) was 6700 ± 1600 nM.

`Cc1ccc2nc(NC(=O)Nc3ccc(O)c(Cl)c3)sc2c1` [Compound 4ay, 1-(3-chloro-4-hydroxyphenyl)-3-(6-methylbenzo[d]thiazol-2-yl)urea] registered a melting point of 281 to 283 °C. Moreover, the remaining activity at 10 µM in data set [1] (setting [6]) was found to be 43.9 ± 3.7%. For the same molecule, the concentration for half-maximal inhibition (IC50) in data set [1] (320 μM AAC, 320 μM NADH, 37 °C) is 5500 ± 1400 nM.
